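Growth conditions: 96-well plates. Treatment: test compound, 48 hours, 5 concentrations. Analysis: linear interpolation between bracketing concentrations; unreached endpoints set to highest concentration. TGI is the concentration that stops growth completely.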
Assays:
Test in all cases: NCI anticancer screen, dose series, 48 h
[1] = system: 786-0 renal
[2] = system: A498 renal
[3] = system: A549 NSCLC
[4] = system: ACHN renal
[5] = system: CAKI-1 renal
[6] = system: CCRF-CEM leukemia
[7] = system: COLO 205 colon
[8] = system: EKVX NSCLC
[9] = system: HCT-15 colon
[10] = system: HL-60(TB) leukemia
[11] = system: HOP-92 NSCLC
[12] = system: HS 578T breast
[13] = system: HT29 colon
[14] = system: IGROV1 ovarian
[15] = system: K-562 leukemia
[16] = system: KM12 colon
[17] = system: LOX IMVI melanoma
[18] = system: M14 melanoma
[19] = system: MALME-3M melanoma
[20] = system: MCF7 breast
[21] = system: MDA-MB-231 breast
[22] = system: MDA-MB-435
[23] = system: MDA-N
[24] = system: MOLT-4 leukemia
[25] = system: NCI-H226 lung
[26] = system: NCI-H460 lung
[27] = system: NCI/ADR-RES ovarian
[28] = system: OVCAR-4 ovarian
[29] = system: OVCAR-5 ovarian
[30] = system: OVCAR-8 ovarian
[31] = system: PC-3 prostate
[32] = system: RPMI-8226 leukemia
[33] = system: RXF 393 renal
[34] = system: SF-268 CNS
[35] = system: SF-295 CNS
[36] = system: SF-539 CNS
[37] = system: SK-MEL-28 melanoma
[38] = system: SK-MEL-5 melanoma
[39] = system: SK-OV-3 ovarian
[40] = system: SN12C renal
[41] = system: SNB-19 CNS
[42] = system: SNB-75 CNS
[43] = system: SR leukemia
[44] = system: SW-620 colon
[45] = system: T-47D breast
[46] = system: TK-10 renal
[47] = system: U251 CNS
[48] = system: UACC-62 melanoma
[49] = system: UO-31 renal
[50] = system: DU-145 prostate
[51] = system: HCC-2998 colon
[52] = system: HCT-116 colon
[53] = system: HOP-62 NSCLC
[54] = system: NCI-H23 lung
[55] = system: NCI-H522 lung
[56] = system: OVCAR-3 ovarian
[57] = system: SK-MEL-2 melanoma
[58] = system: UACC-257 melanoma
[59] = system: BT-549 breast

## CC(=O)O[C@H]1C(=O)[C@@]2(C)[C@H]([C@H](OC(=O)c3ccccc3)[C@]3(O)C[C@H](OC(=O)[C@H](O)[C@@H](NC(=O)c4cccc(N=[N+]=[N-])c4)c4ccccc4)C(C)=C1C3(C)C)[C@]1(OC(C)=O)CO[C@@H]1C[C@@H]2O
[1]
  TGI: > 25 µM
[2]
  TGI: 7.62 µM
[3]
  TGI: > 25 µM
[4]
  TGI: > 25 µM
[5]
  TGI: > 25 µM
[6]
  TGI: 0.0681 µM
[7]
  TGI: 0.0405 µM
[8]
  TGI: > 25 µM
[9]
  TGI: > 25 µM
[10]
  TGI: < 0.0025 µM
[11]
  TGI: > 23.9 µM
[12]
  TGI: 0.0712 µM
[13]
  TGI: > 6.26 µM
[14]
  TGI: > 25 µM
[15]
  TGI: 0.0242 µM
[16]
  TGI: > 25 µM
[17]
  TGI: > 25 µM
[18]
  TGI: 3.23 µM
[19]
  TGI: > 25 µM
[20]
  TGI: > 25 µM
[21]
  TGI: 0.422 µM
[22]
  TGI: 0.00412 µM
[23]
  TGI: 0.00735 µM
[24]
  TGI: 1.12 µM
[25]
  TGI: > 25 µM
[26]
  TGI: > 25 µM
[27]
  TGI: > 25 µM
[28]
  TGI: > 25 µM
[29]
  TGI: 1.06 µM
[30]
  TGI: > 25 µM
[31]
  TGI: > 25 µM
[32]
  TGI: 0.134 µM
[33]
  TGI: 0.897 µM
[34]
  TGI: > 25 µM
[35]
  TGI: 0.19 µM
[36]
  TGI: 0.0133 µM
[37]
  TGI: > 22.8 µM
[38]
  TGI: 3.11 µM
[39]
  TGI: > 25 µM
[40]
  TGI: > 25 µM
[41]
  TGI: > 25 µM
[42]
  TGI: 0.785 µM
[43]
  TGI: 0.162 µM
[44]
  TGI: > 25 µM
[45]
  TGI: > 25 µM
[46]
  TGI: > 20.1 µM
[47]
  TGI: 0.635 µM
[48]
  TGI: > 15.9 µM
[49]
  TGI: > 25 µM

## CC(C)C1=CC23CCC4C(C)(C(=O)O)CCCC4(C)C2CC1C1C(=O)N(c2ccccc2N2C(=O)C4C5CC6C7(C)CCCC(C)(C(=O)O)C7CCC6(C=C5C(C)C)C4C2=O)C(=O)C13 (configuration not stated)
[1]
  TGI: 62.8 µM
[2]
  TGI: 13.6 µM
[3]
  TGI: 38.7 µM
[4]
  TGI: 21.8 µM
[6]
  TGI: 22.1 µM
[7]
  TGI: 17.8 µM
[50]
  TGI: 21.8 µM
[8]
  TGI: 17.9 µM
[51]
  TGI: 16.1 µM
[52]
  TGI: 18.2 µM
[9]
  TGI: 29.8 µM
[53]
  TGI: 18.9 µM
[11]
  TGI: 32.5 µM
[12]
  TGI: 34.1 µM
[13]
  TGI: 10.6 µM
[15]
  TGI: 73 µM
[16]
  TGI: 13.8 µM
[18]
  TGI: 19.8 µM
[19]
  TGI: 28.3 µM
[21]
  TGI: 32.3 µM
[22]
  TGI: 13.1 µM
[23]
  TGI: 19.4 µM
[24]
  TGI: 14.2 µM
[25]
  TGI: 30.2 µM
[54]
  TGI: 11.6 µM
[55]
  TGI: 23 µM
[56]
  TGI: 23.4 µM
[28]
  TGI: 38.8 µM
[29]
  TGI: 25 µM
[31]
  TGI: 14 µM
[32]
  TGI: > 100 µM
[33]
  TGI: 32.1 µM
[34]
  TGI: 16.5 µM
[36]
  TGI: 12.5 µM
[57]
  TGI: 26.1 µM
[38]
  TGI: 17.5 µM
[40]
  TGI: 24.8 µM
[41]
  TGI: 16 µM
[43]
  TGI: 17.3 µM
[44]
  TGI: 30.6 µM
[45]
  TGI: 42.5 µM
[46]
  TGI: 27.3 µM
[47]
  TGI: 12 µM
[49]
  TGI: 32.3 µM

## CCC(C)C1=C(OC(C)=O)[N+]2([O-])Oc3ccc(-c4c(OC(C)=O)c(OC(C)=O)c(-c5ccc(OC(C)=O)cc5)c(OC(C)=O)c4OC(C)=O)cc3OC2(C(C)CC)C(=O)N1OC(C)=O (configuration not stated)
[1]
  TGI: 24 µM
[2]
  TGI: > 50 µM
[3]
  TGI: > 50 µM
[4]
  TGI: > 50 µM
[5]
  TGI: > 50 µM
[6]
  TGI: 39.3 µM
[7]
  TGI: > 50 µM
[50]
  TGI: > 50 µM
[8]
  TGI: 32.7 µM
[52]
  TGI: 22.8 µM
[9]
  TGI: > 50 µM
[10]
  TGI: 19.7 µM
[13]
  TGI: > 50 µM
[14]
  TGI: 34.4 µM
[15]
  TGI: 39.7 µM
[16]
  TGI: > 50 µM
[17]
  TGI: 43.5 µM
[18]
  TGI: > 50 µM
[19]
  TGI: > 50 µM
[20]
  TGI: > 50 µM
[21]
  TGI: > 50 µM
[22]
  TGI: > 50 µM
[23]
  TGI: > 50 µM
[24]
  TGI: 29.3 µM
[25]
  TGI: > 50 µM
[54]
  TGI: > 50 µM
[26]
  TGI: > 50 µM
[55]
  TGI: 17.5 µM
[27]
  TGI: > 50 µM
[56]
  TGI: 29.5 µM
[28]
  TGI: 38 µM
[29]
  TGI: > 50 µM
[30]
  TGI: > 50 µM
[31]
  TGI: > 50 µM
[32]
  TGI: 22.8 µM
[33]
  TGI: > 50 µM
[34]
  TGI: 37.6 µM
[35]
  TGI: 21.8 µM
[36]
  TGI: > 50 µM
[57]
  TGI: 43.2 µM
[37]
  TGI: 44.7 µM
[38]
  TGI: 23 µM
[39]
  TGI: > 50 µM
[40]
  TGI: > 50 µM
[41]
  TGI: > 50 µM
[42]
  TGI: 42.3 µM
[43]
  TGI: 30.6 µM
[44]
  TGI: > 50 µM
[45]
  TGI: 24.8 µM
[46]
  TGI: > 50 µM
[47]
  TGI: > 50 µM
[58]
  TGI: > 50 µM
[48]
  TGI: 16.7 µM
[49]
  TGI: > 50 µM

## CC(=O)OCC1OC(c2nc3ccccc3s2)=CC(OC(C)=O)C1OC(C)=O (configuration not stated)
[1]
  TGI: > 100 µM
[2]
  TGI: > 100 µM
[3]
  TGI: > 100 µM
[4]
  TGI: > 100 µM
[59]
  TGI: > 100 µM
[5]
  TGI: > 100 µM
[6]
  TGI: > 100 µM
[7]
  TGI: > 100 µM
[50]
  TGI: > 100 µM
[8]
  TGI: > 100 µM
[52]
  TGI: > 100 µM
[10]
  TGI: > 100 µM
[53]
  TGI: > 100 µM
[12]
  TGI: > 100 µM
[13]
  TGI: > 100 µM
[14]
  TGI: > 100 µM
[15]
  TGI: > 100 µM
[16]
  TGI: > 100 µM
[17]
  TGI: > 100 µM
[19]
  TGI: > 100 µM
[20]
  TGI: > 100 µM
[21]
  TGI: > 100 µM
[22]
  TGI: > 100 µM
[23]
  TGI: > 100 µM
[25]
  TGI: > 100 µM
[54]
  TGI: > 100 µM
[26]
  TGI: > 100 µM
[55]
  TGI: > 100 µM
[27]
  TGI: > 100 µM
[56]
  TGI: > 100 µM
[28]
  TGI: > 100 µM
[29]
  TGI: > 100 µM
[30]
  TGI: > 100 µM
[31]
  TGI: > 100 µM
[32]
  TGI: > 100 µM
[33]
  TGI: > 100 µM
[34]
  TGI: > 100 µM
[35]
  TGI: > 100 µM
[36]
  TGI: > 100 µM
[37]
  TGI: > 100 µM
[38]
  TGI: > 100 µM
[40]
  TGI: > 100 µM
[41]
  TGI: > 100 µM
[42]
  TGI: > 100 µM
[43]
  TGI: > 100 µM
[44]
  TGI: > 100 µM
[46]
  TGI: > 100 µM
[47]
  TGI: > 100 µM
[58]
  TGI: > 100 µM
[49]
  TGI: > 100 µM
